Experimental data published in ChEMBL document CHEMBL1201862, “PubChem BioAssay data set” (2004).
Calls of active or inactive are those of the source.

Columns and labels:
[1] = viability loss in CEM21 cells – cell-based, CellTiter-Glo luminescence, cherry-picked, cytotoxicity control for viral fusion inhibitor project, dose response (AID 652042); type: functional;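 also: potency for signal decrease meaning cytotoxicity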
[2] = HIV-1 AD8 envelope cell-cell fusion blockers – cherry-pick, dose response (AID 652062); type: functional, cell-based;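 also: luciferase signal from cell-cell fusion driven by HIV-1 clade B AD8 Env; potency is for inhibitors of fusion seen as a drop in luminescence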
[3] = HEK-293T viability loss after treatment – luminescence, T-cell screen hits, cytotoxicity control for TCR NF-kB inhibitor project, dose response (AID 489026); type: functional, cell-based;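 also: cells exposed to compound about 14 hours before the viability readout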
Paired box protein Pax-8 = Paired box protein Pax-8 (Homo sapiens, UniProt Q06710); assay: PAX8 transcriptional activity inhibition in RMG-I – RMG-I cells, luciferase, cherry-pick, dose response (AID 687027); type: functional, cell-based;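 also: luciferase reporter driven by Pax8 target thyroperoxidase promoter measured by SteadyGlo luminescence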
[4] = target: T1, Calpain-2 catalytic subunit (Sus scrofa, UniProt P43367); assay: m-calpain protease blockers, concentration series – biochemical, fluorogenic peptide substrate, dose response (AID 1420); type: functional
T1 sequence (P43367 whole entry): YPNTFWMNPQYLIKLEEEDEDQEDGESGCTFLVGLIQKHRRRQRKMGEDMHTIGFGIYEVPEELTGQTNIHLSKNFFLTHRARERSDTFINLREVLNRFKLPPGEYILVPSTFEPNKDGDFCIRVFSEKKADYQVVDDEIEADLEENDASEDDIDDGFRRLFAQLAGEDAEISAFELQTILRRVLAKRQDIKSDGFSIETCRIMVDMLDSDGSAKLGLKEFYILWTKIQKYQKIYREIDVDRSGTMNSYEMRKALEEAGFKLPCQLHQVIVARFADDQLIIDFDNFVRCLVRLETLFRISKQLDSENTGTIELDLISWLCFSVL

[5] = blockers of HIV-1 ZM109 envelope-driven cell-cell fusion – HeLa effector, CEM target cells, luciferase, cherry-pick, dose response (AID 652058); type: functional, cell-based;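 also: luciferase signal from HIV-1 Env mediated cell-cell fusion of effector and target cells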
[6] = off-target signal loss in HeLa-CEM21 co-culture – HeLa F-luc CTL cells, cherry-picked, counter-screen for HIV-1 Env fusion inhibitor project, dose response (AID 652040); type: functional, cell-based;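 also: potency for signal decrease marking cytotoxic or nonspecific inhibition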
[7] = blockers of HIV-1 envelope-mediated cell-cell fusion – cherry-pick, dose response (AID 652057); type: functional, cell-based
Cytochrome P450 2C9 = Cytochrome P450 2C9 (Homo sapiens, UniProt P11712)
Cytochrome P450 2D6 = Cytochrome P450 2D6 (Homo sapiens, UniProt P10635);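 also: CYP2D6 member of a cytochrome P450 panel assay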
[8] = target: T2, Corticotropin-releasing factor receptor 2/Corticotropin-releasing factor-binding protein (Homo sapiens, UniProt P24387+Q13324); assay: Dose Response confirmation of uHTS hits for small molecule antagonists of the CRF-binding protein and CRF-R2 receptor complex.; type: functional; conditions: read-out: IC50_Mean
T2 sequence (Q13324 whole entry): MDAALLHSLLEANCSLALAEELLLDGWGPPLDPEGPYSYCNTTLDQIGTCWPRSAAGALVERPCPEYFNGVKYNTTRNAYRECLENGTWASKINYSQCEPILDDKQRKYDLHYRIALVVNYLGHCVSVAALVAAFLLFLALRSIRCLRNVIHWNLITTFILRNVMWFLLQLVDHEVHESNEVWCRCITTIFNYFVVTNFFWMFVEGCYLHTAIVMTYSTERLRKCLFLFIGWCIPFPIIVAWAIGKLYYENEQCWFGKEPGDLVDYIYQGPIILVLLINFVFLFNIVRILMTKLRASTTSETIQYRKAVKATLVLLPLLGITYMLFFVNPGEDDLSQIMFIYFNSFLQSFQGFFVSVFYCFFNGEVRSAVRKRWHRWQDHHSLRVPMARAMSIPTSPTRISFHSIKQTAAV
T2 sequence (P24387 whole entry): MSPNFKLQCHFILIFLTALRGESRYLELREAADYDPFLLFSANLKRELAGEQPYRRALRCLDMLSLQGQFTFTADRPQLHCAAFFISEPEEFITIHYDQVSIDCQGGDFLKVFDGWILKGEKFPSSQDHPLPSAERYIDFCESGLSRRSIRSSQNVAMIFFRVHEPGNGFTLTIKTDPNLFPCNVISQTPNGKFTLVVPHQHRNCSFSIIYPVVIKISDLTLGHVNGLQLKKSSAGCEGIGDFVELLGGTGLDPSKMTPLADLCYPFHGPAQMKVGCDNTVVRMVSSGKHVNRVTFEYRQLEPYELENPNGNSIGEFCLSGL

[9] = target: T3, Endoribonuclease toxin MazF (Escherichia coli K-12, UniProt P0AE70); assay: substrate-only fluorescence increase artefacts – biochemical, single-stranded RNase substrate, counter-screen for MazEF activator project, dose response (AID 588502); type: functional
T3 sequence (P0AE70 whole entry): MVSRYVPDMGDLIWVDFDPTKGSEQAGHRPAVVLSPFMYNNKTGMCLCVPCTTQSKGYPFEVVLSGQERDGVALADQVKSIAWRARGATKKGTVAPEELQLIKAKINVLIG

[10] = target: T3, Endoribonuclease toxin MazF; assay: activation of MazEF endoribonuclease cleavage – biochemical, fluorescence, single-stranded RNA substrate, uHTS hits, dose response (AID 588481); type: functional
[11] = target: T2, Corticotropin-releasing factor receptor 2/Corticotropin-releasing factor-binding protein; assay: activators of CRF receptor 2 with binding protein – uHTS hits, confirmation (AID 602473); type: functional; conditions: read-out: EC50_Mean
[12] = viability loss in HeLa cells – cytotoxicity control for MgcRacGAP inhibitor project, dose response (AID 624300); type: functional
[13] = target: T4, Rac GTPase-activating protein 1 (Homo sapiens, UniProt Q9H0H5); assay: blockers of MgcRacGAP-driven Rac1 GTP hydrolysis – biochemical, ADP Hunter fluorescence, primary and confirmatory, confirmation (AID 624330); type: functional
T4 sequence (Q9H0H5 whole entry): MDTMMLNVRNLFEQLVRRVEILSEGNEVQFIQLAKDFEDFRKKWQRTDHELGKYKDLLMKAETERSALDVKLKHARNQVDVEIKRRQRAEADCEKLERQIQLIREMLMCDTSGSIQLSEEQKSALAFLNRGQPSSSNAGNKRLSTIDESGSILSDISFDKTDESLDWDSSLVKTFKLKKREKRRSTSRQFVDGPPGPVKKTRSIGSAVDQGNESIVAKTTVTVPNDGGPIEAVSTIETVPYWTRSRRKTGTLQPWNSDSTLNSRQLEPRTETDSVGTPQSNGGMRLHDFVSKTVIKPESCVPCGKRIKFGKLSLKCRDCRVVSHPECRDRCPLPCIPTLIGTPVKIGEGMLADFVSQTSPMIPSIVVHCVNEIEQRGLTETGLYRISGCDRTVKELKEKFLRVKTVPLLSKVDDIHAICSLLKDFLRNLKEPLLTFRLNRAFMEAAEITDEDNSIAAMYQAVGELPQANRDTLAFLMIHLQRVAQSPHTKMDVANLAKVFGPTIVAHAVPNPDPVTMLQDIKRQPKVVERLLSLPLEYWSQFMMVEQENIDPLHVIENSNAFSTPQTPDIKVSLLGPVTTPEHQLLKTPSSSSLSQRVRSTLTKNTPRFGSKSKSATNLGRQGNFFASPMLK

Beta-galactosidase = Beta-galactosidase (Escherichia coli, UniProt Q8VNN2); assay: PubChem AID 485352; type: functional
Nonstructural protein 1 = Nonstructural protein 1 (Influenza A virus, UniProt Q194T2); type: functional, Influenza A virus (A/California/07/2009(H1N1))
Streptococcus = assay: GAS UMAA2166 growth inhibition – luminescence, BacTiterGlo, counter-screen for streptokinase expression inhibitor project, dose response (AID 1915); type: functional, organism-based;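 also: potency for reduction of bacterial viability or growth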
Streptokinase A = target: T5, Streptokinase A (Streptococcus pyogenes serotype M1, UniProt P10520); assay: viability-normalized secreted streptokinase activity reduction – plasminogen activation absorbance, OD405, dose response (AID 1914); type: functional, Streptococcus pyogenes M1 GAS;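 also: secreted streptokinase activity via plasminogen activation per viability signal from cell pellet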
T5 sequence (P10520 whole entry): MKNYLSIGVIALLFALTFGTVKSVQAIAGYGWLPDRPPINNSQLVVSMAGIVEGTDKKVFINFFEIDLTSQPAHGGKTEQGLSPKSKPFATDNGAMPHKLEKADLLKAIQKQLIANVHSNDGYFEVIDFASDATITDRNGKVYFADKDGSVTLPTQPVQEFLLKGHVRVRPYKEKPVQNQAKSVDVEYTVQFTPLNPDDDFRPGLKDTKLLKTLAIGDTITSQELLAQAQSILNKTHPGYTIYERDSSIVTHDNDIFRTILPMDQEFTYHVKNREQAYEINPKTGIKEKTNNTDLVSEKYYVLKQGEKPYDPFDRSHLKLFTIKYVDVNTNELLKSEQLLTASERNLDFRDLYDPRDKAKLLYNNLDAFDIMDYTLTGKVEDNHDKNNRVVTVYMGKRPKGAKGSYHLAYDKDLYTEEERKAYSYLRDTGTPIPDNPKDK

[14] = tested on: Streptococcus sp. 'group A'; assay: Streptococcus pyogenes SK(-)GAS viability under kanamycin – luminescence, BacTiterGlo, confirmation, counter-screen for streptokinase expression inhibitor project, dose response (AID 1900); type: functional, organism-based
[15] = target: T6, Type-1 angiotensin II receptor (Homo sapiens, UniProt P30556); assay: antagonism of angiotensin II type 1 receptor – cell-based, uHTS hits, selectivity assay for APJ receptor antagonist project, dose response (AID 463214); type: functional;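 also: antagonist potency against angiotensin II stimulated AT1 response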
T6 sequence (P30556 whole entry): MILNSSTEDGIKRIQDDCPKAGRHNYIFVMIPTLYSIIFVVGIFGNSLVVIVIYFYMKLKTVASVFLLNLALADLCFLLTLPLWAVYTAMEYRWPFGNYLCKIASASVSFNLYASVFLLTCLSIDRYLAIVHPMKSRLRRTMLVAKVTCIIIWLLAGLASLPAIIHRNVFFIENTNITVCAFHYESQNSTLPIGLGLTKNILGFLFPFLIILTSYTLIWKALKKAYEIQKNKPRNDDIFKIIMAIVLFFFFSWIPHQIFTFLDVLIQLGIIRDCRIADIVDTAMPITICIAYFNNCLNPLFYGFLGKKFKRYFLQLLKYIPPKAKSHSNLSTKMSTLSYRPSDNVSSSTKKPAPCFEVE

[16] = target: Ras and Rab interactor 1/Tyrosine-protein kinase ABL1 (Homo sapiens, UniProt P00519+Q13671); type: functional;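 also: biochemical TR-FRET dose-response test measuring inhibition of binding between Rin1 and Abl proteins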
cells [17] = type: functional, cell-based
cells [18] = type: functional, cell-based; remark: listed apart in the source
[19] = microbe, parasite or virus in culture; type: functional; conditions: Mycobacterium tuberculosis
Fatty acid synthase [20] = target: T7, Fatty acid synthase (Homo sapiens, UniProt P49327); assay: inhibition of human FAS-TE enzyme activity – biochemical, kinetic fluorescence intensity, dose response (AID 624326); type: functional;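 also: rate of fluorescence rise from hydrolysis of a fluorogenic O-methyl fluorescein ester substrate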
Fatty acid synthase [21] = target: T7, Fatty acid synthase; assay: inhibition of human FAS-TE enzyme activity – biochemical, endpoint fluorescence intensity, uHTS hits, dose response (AID 624327); type: functional;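 also: fluorescence from hydrolysis of an O-methyl fluorescein acyl ester substrate by the enzyme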

Sequence of Ras and Rab interactor 1/Tyrosine-protein kinase ABL1 (P00519 whole entry): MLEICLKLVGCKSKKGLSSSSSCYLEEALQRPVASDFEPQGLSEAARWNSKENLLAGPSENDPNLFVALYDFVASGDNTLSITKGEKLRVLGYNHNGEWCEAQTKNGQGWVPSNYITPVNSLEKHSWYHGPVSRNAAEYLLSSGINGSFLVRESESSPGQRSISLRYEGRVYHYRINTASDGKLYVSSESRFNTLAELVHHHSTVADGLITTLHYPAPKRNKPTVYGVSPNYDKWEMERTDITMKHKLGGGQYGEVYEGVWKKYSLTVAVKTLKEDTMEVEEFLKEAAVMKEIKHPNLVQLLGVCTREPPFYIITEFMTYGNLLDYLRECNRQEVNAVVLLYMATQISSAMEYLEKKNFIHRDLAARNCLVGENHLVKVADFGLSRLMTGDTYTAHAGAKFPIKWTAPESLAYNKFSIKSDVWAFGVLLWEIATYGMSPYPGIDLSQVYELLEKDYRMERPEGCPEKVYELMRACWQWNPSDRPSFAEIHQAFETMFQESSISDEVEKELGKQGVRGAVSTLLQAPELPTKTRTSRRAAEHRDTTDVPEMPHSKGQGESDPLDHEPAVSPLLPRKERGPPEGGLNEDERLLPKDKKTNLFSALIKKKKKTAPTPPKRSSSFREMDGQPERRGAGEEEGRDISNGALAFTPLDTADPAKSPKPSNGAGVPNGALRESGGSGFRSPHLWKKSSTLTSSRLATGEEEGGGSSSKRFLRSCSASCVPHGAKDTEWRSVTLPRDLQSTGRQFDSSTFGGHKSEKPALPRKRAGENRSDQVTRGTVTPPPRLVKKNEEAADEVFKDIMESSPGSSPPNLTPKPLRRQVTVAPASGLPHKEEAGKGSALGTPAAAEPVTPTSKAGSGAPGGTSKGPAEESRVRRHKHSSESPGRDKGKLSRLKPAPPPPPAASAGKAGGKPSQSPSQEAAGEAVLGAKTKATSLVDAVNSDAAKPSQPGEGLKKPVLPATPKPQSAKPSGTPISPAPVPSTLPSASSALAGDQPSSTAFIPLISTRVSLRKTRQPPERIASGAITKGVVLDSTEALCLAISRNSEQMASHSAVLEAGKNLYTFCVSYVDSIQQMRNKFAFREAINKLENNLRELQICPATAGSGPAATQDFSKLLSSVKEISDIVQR
Sequence of Ras and Rab interactor 1/Tyrosine-protein kinase ABL1 (Q13671 whole entry): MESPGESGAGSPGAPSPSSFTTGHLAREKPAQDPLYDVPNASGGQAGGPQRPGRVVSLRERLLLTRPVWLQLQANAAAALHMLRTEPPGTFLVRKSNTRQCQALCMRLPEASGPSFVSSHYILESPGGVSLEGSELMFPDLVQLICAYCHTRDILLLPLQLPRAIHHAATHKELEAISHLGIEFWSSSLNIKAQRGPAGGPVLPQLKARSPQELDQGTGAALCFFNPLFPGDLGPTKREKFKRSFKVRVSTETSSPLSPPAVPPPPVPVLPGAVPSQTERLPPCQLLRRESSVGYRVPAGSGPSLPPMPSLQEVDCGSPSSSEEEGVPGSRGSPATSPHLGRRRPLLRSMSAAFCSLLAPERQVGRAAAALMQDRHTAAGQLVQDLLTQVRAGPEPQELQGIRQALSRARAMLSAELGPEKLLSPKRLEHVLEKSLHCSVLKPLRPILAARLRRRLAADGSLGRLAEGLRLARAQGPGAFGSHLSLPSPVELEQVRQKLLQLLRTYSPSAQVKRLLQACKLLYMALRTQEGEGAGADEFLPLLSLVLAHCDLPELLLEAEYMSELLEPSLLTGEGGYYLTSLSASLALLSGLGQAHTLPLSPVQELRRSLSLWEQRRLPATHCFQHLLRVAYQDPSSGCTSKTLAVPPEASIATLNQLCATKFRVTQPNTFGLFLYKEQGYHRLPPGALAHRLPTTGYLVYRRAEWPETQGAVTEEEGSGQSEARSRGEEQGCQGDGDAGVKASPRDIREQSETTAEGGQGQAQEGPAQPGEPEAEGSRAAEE
T7 sequence (P49327 whole entry): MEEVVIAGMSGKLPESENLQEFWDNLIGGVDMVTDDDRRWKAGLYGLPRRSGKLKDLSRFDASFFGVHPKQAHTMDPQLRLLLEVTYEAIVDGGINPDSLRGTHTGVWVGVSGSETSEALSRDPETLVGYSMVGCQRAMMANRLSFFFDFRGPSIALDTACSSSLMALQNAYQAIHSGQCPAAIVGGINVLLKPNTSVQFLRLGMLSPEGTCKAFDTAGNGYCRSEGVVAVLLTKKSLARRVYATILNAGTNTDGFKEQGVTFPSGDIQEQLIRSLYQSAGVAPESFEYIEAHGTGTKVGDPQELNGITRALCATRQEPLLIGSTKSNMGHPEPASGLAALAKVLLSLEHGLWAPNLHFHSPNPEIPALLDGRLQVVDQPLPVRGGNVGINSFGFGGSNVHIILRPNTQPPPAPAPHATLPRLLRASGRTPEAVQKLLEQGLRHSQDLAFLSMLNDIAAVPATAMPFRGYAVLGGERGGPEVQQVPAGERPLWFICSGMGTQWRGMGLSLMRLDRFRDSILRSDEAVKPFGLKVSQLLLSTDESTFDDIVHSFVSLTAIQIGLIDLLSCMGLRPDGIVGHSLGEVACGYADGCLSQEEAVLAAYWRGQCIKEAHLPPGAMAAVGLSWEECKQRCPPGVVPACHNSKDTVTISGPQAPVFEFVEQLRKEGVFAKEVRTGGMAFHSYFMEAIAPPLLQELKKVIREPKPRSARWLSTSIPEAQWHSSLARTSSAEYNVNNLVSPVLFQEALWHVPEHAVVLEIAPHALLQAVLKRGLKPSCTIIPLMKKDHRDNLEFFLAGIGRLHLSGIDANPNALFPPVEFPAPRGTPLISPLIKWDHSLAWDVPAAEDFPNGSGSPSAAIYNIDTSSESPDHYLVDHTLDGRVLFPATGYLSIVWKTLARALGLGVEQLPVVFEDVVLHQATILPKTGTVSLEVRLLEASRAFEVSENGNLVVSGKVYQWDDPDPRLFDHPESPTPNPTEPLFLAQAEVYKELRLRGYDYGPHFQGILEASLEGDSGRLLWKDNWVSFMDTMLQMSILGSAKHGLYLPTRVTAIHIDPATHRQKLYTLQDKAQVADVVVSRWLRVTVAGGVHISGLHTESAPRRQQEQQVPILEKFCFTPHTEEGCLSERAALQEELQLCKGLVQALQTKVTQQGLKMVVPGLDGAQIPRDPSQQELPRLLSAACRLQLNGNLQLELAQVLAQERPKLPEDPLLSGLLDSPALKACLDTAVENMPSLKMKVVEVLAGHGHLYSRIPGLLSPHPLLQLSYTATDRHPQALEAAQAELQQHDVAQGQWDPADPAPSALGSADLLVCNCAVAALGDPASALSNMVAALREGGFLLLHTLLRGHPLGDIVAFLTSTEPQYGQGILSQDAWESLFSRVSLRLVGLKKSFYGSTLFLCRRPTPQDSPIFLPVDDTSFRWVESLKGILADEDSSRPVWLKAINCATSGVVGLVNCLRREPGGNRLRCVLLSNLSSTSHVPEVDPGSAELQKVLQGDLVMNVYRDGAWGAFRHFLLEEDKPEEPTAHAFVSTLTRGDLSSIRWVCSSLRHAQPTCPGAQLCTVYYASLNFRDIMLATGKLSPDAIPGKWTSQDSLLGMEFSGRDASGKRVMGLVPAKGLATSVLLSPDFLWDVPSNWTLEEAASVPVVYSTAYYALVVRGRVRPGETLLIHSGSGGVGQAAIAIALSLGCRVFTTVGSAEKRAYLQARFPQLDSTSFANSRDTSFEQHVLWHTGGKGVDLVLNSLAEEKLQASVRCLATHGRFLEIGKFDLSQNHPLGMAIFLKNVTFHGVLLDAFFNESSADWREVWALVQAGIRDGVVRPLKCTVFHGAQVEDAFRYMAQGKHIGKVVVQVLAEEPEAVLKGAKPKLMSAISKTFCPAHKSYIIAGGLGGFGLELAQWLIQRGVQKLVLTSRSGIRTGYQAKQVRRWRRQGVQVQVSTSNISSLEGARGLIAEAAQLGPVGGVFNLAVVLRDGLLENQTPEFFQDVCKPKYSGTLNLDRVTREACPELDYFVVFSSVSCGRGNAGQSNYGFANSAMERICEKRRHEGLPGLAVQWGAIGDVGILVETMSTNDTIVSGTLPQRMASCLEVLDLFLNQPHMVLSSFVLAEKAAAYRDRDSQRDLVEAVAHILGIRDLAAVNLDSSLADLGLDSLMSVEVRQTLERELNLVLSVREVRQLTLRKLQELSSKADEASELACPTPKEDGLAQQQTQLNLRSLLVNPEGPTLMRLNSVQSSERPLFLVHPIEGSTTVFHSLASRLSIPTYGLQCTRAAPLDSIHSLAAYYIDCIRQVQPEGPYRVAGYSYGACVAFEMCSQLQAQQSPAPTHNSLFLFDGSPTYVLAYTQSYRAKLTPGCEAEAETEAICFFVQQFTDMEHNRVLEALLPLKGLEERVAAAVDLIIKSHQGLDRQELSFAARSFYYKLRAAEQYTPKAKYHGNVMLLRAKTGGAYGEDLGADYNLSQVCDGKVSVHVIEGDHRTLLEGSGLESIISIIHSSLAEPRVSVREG
Sequence of Nonstructural protein 1 (Q194T2 whole entry): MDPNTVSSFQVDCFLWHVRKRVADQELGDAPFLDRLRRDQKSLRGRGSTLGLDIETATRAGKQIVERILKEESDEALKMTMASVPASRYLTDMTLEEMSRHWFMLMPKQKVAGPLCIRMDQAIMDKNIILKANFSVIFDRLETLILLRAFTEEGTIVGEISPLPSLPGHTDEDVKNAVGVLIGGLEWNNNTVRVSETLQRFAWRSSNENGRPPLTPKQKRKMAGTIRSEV
Sequence of Paired box protein Pax-8 (Q06710 whole entry): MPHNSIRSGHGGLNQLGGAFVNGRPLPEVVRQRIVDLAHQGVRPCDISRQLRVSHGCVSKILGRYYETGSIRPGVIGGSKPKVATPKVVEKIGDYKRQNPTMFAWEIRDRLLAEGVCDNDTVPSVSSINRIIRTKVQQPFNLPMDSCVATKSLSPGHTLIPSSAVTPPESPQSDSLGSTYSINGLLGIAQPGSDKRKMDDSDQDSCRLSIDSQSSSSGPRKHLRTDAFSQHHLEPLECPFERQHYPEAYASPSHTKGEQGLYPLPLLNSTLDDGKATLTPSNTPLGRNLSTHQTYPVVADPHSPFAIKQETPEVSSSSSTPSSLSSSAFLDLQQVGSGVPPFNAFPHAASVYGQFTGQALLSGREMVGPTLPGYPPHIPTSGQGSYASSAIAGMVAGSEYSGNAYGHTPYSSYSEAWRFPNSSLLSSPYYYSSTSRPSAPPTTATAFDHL

Compound: COc1cc(-c2c(-c3cc(OC)c(OC)c(OC)c3)noc2C)ccc1F
- AC50 [1]: 21.3 µM (active)
- AC50 [2]: 29.7 µM (active)
- IC50 [3]: 75.9 µM (inactive)
- AC50 (Paired box protein Pax-8): 2.78 µM (active)

Compound: CCC(C(=O)c1ccccc1)N(C(=O)c1ccccc1Cl)N1C(=O)C2C3C=CC(C3)C2C1=O (stereo not given)
- IC50 [4]: 24.3 µM (not active)
- AC50 [2]: 27.5 µM (active)
- AC50 [5]: 6.01 µM (active)
- AC50 [6]: 7.95 µM (active)
- AC50 [7]: 4.55 µM (active)
- AC50 (Cytochrome P450 2C9): 10 µM (inconclusive)
- AC50 (Cytochrome P450 2D6): 7.08 µM (inconclusive)

Compound: Cc1ccccc1Cn1cccc1/C=C1/C(=N)N2C=CSC2=NC1=O
- IC50 [8]: > 47.1 µM (inactive)
- EC50 [9]: > 99 µM (inactive)
- EC50 [10]: > 99 µM (inactive)
- EC50 [11]: > 53 µM (inactive)

Compound: Cc1ccc(-c2cnc(NCc3cc4c(cc3[N+](=O)[O-])OCO4)n2C)cc1C
- CC50 [12]: 100 µM (active)
- IC50 [13]: 77.6 µM (active)

Compound: CC(C)(C)n1nnnc1C(c1cccnc1)N(Cc1ccccc1)Cc1cccs1 (stereo not given)
- AC50 [1]: 52.5 µM (active)
- AC50 [2]: 17.5 µM (active)
- AC50 [5]: 7 µM (active)
- AC50 [6]: 8.29 µM (active)
- AC50 [7]: 5.51 µM (active)

Compound: CCSc1nnc(NC(=O)c2ccccn2)s1
- EC50 (Beta-galactosidase): > 40 µM (inactive)
- IC50 (Nonstructural protein 1): 10.6 µM (active)
- EC50 (Streptococcus): 15.3 µM (active)
- EC50 (Streptokinase A): > 150 µM (not active)
- EC50 [14]: 6.34 µM (active)
- IC50 [15]: 16.8 µM (active)

Compound: C[C@@H]1CCCCO[C@@H](CN(C)S(=O)(=O)c2cccs2)[C@@H](C)CN([C@H](C)CO)C(=O)c2cc(NS(=O)(=O)c3ccccc3)ccc2O1
- IC50 [16]: 1.27 µM (active)

Compound: CCOC(=O)/C(=N\Nc1ccc(C(C)=O)cc1)c1csc(Nc2ccccc2)n1
- EC50 [9]: 38.1 µM (inactive)
- EC50 [10]: > 99 µM (inactive)
- EC50 [11]: 18.3 µM (active)

Compound: CCCOc1ccc(/C=N/NC(=O)CSc2ccccn2)cc1OC
- EC50 (cells [17]): > 350 µM (not active)
- IC50 [16]: 12 µM (inactive)
- EC50 (cells [18]): > 350 µM (not active)

Compound: CCOC(=O)N1CCN(C(=O)C[C@H]2C[C@@]3(C(=O)OC)C(=C[C@H](C(C)(C)C)O[C@@H]3C)N(CCC3=CCCCC3)C2=O)CC1
- AC50 [1]: 25.6 µM (active)
- AC50 [2]: 3.46 µM (active)
- AC50 [5]: 3.45 µM (active)
- AC50 [6]: 4.21 µM (active)
- AC50 [7]: 2.49 µM (active)

Compound: COc1cc(/C=N/N(C)c2ccccc2)cc(Cl)c1O
- CC50 [19]: > 40 µM (active)
- CC50 [12]: 100 µM (active)
- IC50 (Fatty acid synthase [20]): 5.46 µM (active)
- IC50 (Fatty acid synthase [21]): 4.5 µM (active)
- IC50 [13]: 38.2 µM (active)
